From ChEMBL document CHEMBL5653615 (J Biol Chem, 2013)

Columns and labels:
[1] = target: Tyrosine-protein kinase ABL1 (Homo sapiens) (UniProt P00519); test: Inhibition of human ABL1 at 500 nM by HotSpot assay relative to control
[2] = target: RAC-alpha serine/threonine-protein kinase (Homo sapiens) (UniProt P31749); test: Inhibition of human AKT1 at 500 nM by HotSpot assay relative to control
[3] = target: Calcium/calmodulin-dependent protein kinase type 1 (Homo sapiens) (UniProt Q14012); test: Inhibition of human CAMK1a at 500 nM by HotSpot assay relative to control
Sequence of Calcium/calmodulin-dependent protein kinase type 1 (Homo sapiens) (Q14012 whole entry, looked up): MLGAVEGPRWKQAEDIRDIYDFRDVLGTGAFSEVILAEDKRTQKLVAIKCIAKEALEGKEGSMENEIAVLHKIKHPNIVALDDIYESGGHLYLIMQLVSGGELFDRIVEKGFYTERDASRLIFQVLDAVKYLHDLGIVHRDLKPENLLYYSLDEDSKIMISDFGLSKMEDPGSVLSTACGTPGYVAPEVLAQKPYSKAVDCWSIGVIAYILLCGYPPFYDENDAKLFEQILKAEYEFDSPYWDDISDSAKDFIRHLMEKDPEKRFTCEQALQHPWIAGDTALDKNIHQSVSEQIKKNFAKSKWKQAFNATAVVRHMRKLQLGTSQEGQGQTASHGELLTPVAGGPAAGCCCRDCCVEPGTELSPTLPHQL

[4] = target: CDK9/Cyclin K (Homo sapiens) (UniProt P50750+O75909); test: Inhibition of human CDK9/cyclin K at 500 nM by HotSpot assay relative to control; format: protein-complex assay
[5] = target: T1, Megakaryocyte-associated tyrosine-protein kinase (Homo sapiens) (UniProt P42679); test: Inhibition of human CTK at 500 nM by HotSpot assay relative to control
T1 sequence (whole entry): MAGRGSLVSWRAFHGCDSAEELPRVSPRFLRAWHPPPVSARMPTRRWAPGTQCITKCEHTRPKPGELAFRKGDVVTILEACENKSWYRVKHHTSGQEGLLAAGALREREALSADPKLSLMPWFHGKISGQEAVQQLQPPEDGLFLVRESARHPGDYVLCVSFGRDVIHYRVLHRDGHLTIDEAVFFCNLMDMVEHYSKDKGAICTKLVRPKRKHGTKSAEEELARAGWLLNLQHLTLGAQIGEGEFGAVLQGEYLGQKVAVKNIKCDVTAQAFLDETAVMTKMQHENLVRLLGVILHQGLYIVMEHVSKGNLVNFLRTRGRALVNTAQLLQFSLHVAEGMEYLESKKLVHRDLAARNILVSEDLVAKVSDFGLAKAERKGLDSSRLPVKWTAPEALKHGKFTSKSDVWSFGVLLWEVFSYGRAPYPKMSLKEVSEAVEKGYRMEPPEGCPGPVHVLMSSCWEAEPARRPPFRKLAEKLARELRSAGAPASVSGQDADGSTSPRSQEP

[6] = target: Death-associated protein kinase 1 (Homo sapiens) (UniProt P53355); test: Inhibition of human DAPK1 at 500 nM by HotSpot assay relative to control
Sequence of Death-associated protein kinase 1 (Homo sapiens) (P53355 whole entry, looked up): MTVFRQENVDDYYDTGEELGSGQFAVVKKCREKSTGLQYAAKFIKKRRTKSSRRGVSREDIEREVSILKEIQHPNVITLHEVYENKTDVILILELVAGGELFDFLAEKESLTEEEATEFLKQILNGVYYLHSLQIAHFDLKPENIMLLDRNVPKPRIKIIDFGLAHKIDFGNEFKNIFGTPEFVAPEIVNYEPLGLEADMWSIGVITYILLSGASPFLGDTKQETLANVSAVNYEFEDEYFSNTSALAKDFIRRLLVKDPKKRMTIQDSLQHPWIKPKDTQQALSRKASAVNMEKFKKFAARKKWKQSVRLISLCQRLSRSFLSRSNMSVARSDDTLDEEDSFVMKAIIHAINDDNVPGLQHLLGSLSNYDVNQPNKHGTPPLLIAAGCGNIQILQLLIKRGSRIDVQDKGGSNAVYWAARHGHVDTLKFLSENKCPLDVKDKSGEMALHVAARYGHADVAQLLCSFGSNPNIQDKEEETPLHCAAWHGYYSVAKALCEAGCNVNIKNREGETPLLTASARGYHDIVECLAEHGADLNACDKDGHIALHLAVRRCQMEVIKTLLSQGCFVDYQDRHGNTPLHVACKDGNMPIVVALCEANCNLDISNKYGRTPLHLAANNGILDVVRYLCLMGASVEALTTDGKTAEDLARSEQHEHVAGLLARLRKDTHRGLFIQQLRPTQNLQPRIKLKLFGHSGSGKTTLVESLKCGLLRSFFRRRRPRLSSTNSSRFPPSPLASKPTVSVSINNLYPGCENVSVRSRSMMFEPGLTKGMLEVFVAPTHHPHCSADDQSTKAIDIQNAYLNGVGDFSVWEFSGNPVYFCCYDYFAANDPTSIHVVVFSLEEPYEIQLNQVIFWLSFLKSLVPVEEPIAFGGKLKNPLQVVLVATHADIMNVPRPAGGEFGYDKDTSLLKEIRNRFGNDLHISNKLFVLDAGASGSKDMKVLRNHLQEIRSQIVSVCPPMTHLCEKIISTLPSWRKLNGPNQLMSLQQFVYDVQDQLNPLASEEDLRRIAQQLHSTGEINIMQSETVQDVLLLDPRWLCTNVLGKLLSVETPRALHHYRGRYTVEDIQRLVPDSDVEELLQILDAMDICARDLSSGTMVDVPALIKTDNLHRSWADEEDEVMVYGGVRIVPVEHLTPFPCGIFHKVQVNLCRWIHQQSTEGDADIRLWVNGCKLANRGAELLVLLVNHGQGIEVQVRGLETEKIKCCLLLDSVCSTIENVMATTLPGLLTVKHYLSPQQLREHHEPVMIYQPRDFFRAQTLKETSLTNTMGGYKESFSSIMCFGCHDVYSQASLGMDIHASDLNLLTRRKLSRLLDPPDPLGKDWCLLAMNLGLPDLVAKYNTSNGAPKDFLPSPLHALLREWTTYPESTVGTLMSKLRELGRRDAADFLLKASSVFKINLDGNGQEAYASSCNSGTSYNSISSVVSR

[7] = target: Ephrin type-A receptor 2 (Homo sapiens) (UniProt P29317); test: Inhibition of human EPHA2 at 500 nM by HotSpot assay relative to control
[8] = target: Insulin-like growth factor 1 receptor (Homo sapiens, UniProt P08069); test: Inhibition of human IGF1R at 500 nM by HotSpot assay relative to control
[9] = target: T2, Mitogen-activated protein kinase kinase kinase 3 (Homo sapiens) (UniProt Q99759); test: Inhibition of human MEKK3 at 500 nM by HotSpot assay relative to control
T2 sequence (whole entry): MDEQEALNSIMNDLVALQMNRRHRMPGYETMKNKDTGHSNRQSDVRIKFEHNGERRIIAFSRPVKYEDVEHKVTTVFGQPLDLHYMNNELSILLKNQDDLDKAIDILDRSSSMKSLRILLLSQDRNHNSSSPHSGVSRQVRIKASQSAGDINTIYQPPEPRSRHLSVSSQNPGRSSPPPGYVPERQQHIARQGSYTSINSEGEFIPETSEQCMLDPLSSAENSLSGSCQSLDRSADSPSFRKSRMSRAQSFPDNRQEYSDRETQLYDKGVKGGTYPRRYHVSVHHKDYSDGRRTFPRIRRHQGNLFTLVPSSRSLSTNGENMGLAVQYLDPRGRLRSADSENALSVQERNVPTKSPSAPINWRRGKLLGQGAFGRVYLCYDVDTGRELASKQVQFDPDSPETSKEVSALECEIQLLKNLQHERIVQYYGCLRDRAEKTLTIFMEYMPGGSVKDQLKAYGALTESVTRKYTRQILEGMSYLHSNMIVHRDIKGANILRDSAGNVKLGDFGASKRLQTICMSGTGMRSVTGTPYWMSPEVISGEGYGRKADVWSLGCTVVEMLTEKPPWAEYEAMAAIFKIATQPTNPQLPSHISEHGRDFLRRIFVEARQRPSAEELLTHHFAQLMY

[10] = target: Serine/threonine-protein kinase 24 (Homo sapiens) (UniProt Q9Y6E0); test: Inhibition of human STK24 at 500 nM by HotSpot assay relative to control
Sequence of Serine/threonine-protein kinase 24 (Homo sapiens) (Q9Y6E0 whole entry, looked up): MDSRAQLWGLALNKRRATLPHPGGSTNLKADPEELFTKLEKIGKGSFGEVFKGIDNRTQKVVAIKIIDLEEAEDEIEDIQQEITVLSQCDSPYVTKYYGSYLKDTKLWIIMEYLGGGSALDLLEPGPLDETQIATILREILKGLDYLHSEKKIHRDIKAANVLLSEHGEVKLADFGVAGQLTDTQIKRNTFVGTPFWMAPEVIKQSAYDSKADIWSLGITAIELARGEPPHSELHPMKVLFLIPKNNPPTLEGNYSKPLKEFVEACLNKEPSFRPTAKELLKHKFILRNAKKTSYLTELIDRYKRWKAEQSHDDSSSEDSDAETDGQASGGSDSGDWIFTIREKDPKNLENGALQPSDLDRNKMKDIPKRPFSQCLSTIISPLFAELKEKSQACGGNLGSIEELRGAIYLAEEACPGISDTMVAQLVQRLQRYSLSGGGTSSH

[11] = target: Mitogen-activated protein kinase 14 (Homo sapiens) (UniProt Q16539); test: Inhibition of human MAPK14 at 500 nM by HotSpot assay relative to control
Sequence of Mitogen-activated protein kinase 14 (Homo sapiens) (Q16539 whole entry): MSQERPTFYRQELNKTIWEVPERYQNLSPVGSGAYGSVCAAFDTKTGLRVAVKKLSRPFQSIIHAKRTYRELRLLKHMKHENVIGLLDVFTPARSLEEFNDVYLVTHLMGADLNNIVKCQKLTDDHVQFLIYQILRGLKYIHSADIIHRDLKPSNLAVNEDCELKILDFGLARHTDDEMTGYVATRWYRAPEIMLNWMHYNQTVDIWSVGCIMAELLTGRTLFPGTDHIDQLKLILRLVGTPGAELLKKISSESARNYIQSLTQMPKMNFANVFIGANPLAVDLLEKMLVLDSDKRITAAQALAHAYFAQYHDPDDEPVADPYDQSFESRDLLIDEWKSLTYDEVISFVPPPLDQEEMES

[12] = target: Ribosomal protein S6 kinase beta-2 (Homo sapiens) (UniProt Q9UBS0); test: Inhibition of human RPS6KB2 at 500 nM by HotSpot assay relative to control
Sequence of Ribosomal protein S6 kinase beta-2 (Homo sapiens) (Q9UBS0 whole entry): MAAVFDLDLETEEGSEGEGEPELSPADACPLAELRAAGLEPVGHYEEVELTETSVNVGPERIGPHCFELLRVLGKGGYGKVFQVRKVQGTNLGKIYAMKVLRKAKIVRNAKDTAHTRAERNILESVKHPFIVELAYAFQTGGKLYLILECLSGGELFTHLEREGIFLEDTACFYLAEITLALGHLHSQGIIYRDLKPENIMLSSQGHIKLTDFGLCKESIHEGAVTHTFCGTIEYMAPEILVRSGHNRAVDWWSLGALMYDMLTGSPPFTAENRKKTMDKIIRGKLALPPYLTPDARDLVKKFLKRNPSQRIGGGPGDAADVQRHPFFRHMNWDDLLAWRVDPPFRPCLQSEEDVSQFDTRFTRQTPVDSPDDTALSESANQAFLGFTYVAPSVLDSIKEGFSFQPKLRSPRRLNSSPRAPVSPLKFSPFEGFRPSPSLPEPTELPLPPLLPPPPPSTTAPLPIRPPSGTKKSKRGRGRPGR

[13] = target: Serine/threonine-protein kinase N1 (Homo sapiens) (UniProt Q16512); test: Inhibition of human PRK1 at 500 nM by HotSpot assay relative to control
[14] = target: RAF proto-oncogene serine/threonine-protein kinase (Homo sapiens) (UniProt P04049); test: Inhibition of human RAF1 at 500 nM by HotSpot assay relative to control
[15] = target: T3, Serine/threonine-protein kinase TBK1 (Homo sapiens) (UniProt Q9UHD2); test: Inhibition of human TBK1 at 500 nM by HotSpot assay relative to control
T3 sequence (whole entry): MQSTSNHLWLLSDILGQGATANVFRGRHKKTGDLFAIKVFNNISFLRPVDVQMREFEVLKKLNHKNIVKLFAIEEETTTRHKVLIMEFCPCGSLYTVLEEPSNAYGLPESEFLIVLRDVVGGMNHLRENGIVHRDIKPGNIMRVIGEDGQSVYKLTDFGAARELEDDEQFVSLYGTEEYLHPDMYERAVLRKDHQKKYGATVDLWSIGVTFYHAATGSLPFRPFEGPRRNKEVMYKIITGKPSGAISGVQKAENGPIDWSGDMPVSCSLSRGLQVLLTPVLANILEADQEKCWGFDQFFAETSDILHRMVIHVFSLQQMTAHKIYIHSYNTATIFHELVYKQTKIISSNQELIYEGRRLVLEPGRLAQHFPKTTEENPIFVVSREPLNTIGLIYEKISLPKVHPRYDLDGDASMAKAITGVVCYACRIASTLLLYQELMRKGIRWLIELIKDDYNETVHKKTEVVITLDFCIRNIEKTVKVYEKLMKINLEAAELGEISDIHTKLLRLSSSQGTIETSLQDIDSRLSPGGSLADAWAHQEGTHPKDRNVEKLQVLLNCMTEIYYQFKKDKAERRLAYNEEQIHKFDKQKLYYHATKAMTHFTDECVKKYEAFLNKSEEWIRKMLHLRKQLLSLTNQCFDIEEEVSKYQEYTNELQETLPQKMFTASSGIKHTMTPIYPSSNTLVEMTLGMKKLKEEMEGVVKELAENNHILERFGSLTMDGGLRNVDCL

[16] = Inhibition of inactive form of human Insulin receptor (978 to 1283 residues) C981S mutant kinase domain expressed in baculovirus infected Sf9 cells incubated for 1 hr by [gamma-33P]ATP assay

Sequence of RAC-alpha serine/threonine-protein kinase (Homo sapiens) (P31749 whole entry): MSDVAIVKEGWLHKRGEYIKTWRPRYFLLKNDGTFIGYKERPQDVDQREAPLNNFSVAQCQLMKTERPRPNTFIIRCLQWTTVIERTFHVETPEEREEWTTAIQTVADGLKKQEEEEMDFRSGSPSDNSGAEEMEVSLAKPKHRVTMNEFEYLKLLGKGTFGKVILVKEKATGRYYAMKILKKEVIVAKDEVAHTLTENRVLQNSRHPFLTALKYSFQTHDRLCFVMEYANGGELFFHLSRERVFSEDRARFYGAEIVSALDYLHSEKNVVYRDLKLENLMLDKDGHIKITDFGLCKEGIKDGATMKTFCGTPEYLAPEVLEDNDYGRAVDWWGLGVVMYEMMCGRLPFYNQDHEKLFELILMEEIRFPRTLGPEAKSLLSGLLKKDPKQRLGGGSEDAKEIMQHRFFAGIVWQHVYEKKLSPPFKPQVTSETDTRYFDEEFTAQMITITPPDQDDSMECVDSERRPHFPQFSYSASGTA
Sequence of Tyrosine-protein kinase ABL1 (Homo sapiens) (P00519 whole entry): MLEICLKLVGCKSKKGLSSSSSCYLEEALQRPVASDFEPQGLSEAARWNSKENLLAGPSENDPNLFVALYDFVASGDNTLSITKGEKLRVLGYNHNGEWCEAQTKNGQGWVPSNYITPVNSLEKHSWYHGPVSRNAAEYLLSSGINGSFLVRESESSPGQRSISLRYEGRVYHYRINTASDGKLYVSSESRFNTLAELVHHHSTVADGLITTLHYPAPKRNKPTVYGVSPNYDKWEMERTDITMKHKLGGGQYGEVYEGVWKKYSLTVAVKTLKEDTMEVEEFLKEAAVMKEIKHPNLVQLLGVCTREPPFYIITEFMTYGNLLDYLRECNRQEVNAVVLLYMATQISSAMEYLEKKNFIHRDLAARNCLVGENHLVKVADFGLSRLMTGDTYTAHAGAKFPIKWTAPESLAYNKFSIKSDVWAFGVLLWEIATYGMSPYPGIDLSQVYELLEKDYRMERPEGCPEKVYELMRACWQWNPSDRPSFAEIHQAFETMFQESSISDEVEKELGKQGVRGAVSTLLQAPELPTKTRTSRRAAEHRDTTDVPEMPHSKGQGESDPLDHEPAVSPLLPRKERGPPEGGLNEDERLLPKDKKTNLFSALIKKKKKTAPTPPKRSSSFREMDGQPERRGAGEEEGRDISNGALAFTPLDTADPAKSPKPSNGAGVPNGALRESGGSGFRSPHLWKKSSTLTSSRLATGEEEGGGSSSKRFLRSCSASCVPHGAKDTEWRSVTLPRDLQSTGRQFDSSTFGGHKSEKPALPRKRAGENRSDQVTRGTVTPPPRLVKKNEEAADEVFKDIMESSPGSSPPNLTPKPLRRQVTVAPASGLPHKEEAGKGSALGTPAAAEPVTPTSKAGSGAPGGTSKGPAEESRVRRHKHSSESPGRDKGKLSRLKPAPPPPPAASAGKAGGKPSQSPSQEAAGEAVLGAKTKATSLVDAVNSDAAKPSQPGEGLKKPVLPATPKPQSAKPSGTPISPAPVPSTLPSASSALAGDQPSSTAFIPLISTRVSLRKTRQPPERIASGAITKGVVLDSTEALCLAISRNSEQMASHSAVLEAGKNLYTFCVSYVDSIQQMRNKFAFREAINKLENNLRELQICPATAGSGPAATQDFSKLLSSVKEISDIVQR

| Compound | inhibition [1] [%] | inhibition [2] [%] | inhibition [3] [%] | inhibition [4] [%] | inhibition [5] [%] | inhibition [6] [%] | inhibition [7] [%] | inhibition [8] [%] | inhibition [9] [%] | inhibition [10] [%] | inhibition [11] [%] | inhibition [12] [%] | inhibition [13] [%] | inhibition [14] [%] | inhibition [15] [%] | IC50 [16] [µM] |
| --- | --- | --- | --- | --- | --- | --- | --- | --- | --- | --- | --- | --- | --- | --- | --- | --- |
| Oc1n[nH]c2nnc(-c3c(-c4ccccc4)nn4ccccc34)cc12 | 0.36 | 2.37 | 0.02 | -4.88 | 1.78 | 6.45 | -0.91 | -4.89 | -4.26 | -2.3 | -1.15 | -8.15 | -0.85 | 1.96 | -4.04 | 1.8 |
| Nc1n[nH]c2nnc(-c3c(-c4ccccc4)nn4ccccc34)cc12 | 16.7 | 1.98 | -2.35 | 1.48 | 4.4 | 4.15 | 1.69 | -1.88 | -9.53 | 25.4 | 5.42 | -4.11 | 1.8 | 4.42 | -0.37 | 5.4 |
